The target in assay [1] is T1, Pho80/Pho85/Pho81 complex (Saccharomyces cerevisiae S288c) (UniProt P17157+P17442+P20052). Briefly: Displacement of [32P]-labeled 4-inositol heptakisphosphate from Pho80-Pho85-Pho81-MD complex in Saccharomyces cerevisiae at 400 uM 30 mins at 4 degC by electrophoretic mobility shift assay. Format: protein-complex assay. The settings on record: tested as the 32P-labelled form.

In assay [2] the target is T1, Pho80/Pho85/Pho81 complex (Saccharomyces cerevisiae S288c). Briefly: Displacement of 5-Inositol heptakisphosphate from Pho80-Pho85-Pho81-MD complex in Saccharomyces cerevisiae at 0.2 uM 30 mins by electrophoretic mobility shift assay. Format: protein-complex assay.
Assay [3] has the same target. In words: Displacement of myo-inositol hexakisphosphate from Pho80-Pho85-Pho81-MD complex in Saccharomyces cerevisiae at 0.2 uM 30 mins by electrophoretic mobility shift assay. Format: protein-complex assay.
The target is the same in assay [4]. Briefly: Displacement of [32P]-labeled 4-inositol heptakisphosphate from Pho80-Pho85-Pho81-MD complex in Saccharomyces cerevisiae at 400 uM 30 mins at 30 degC by electrophoretic mobility shift assay. The settings on record: tested as the 32P-labelled form. Format: protein-complex assay.
Assay [5] shares this target. In words: Binding affinity to Saccharomyces cerevisiae Pho80-Pho85-Pho81-MD complex at 400 uM after 30 mins at 4 degC by electrophoretic mobility shift assay. The assay is classed as protein-complex assay.
Assay [6] has as its target T2, Phosphate system positive regulatory protein PHO81 (Saccharomyces cerevisiae S288c, UniProt P17442).
T2 sequence (P17442 whole entry): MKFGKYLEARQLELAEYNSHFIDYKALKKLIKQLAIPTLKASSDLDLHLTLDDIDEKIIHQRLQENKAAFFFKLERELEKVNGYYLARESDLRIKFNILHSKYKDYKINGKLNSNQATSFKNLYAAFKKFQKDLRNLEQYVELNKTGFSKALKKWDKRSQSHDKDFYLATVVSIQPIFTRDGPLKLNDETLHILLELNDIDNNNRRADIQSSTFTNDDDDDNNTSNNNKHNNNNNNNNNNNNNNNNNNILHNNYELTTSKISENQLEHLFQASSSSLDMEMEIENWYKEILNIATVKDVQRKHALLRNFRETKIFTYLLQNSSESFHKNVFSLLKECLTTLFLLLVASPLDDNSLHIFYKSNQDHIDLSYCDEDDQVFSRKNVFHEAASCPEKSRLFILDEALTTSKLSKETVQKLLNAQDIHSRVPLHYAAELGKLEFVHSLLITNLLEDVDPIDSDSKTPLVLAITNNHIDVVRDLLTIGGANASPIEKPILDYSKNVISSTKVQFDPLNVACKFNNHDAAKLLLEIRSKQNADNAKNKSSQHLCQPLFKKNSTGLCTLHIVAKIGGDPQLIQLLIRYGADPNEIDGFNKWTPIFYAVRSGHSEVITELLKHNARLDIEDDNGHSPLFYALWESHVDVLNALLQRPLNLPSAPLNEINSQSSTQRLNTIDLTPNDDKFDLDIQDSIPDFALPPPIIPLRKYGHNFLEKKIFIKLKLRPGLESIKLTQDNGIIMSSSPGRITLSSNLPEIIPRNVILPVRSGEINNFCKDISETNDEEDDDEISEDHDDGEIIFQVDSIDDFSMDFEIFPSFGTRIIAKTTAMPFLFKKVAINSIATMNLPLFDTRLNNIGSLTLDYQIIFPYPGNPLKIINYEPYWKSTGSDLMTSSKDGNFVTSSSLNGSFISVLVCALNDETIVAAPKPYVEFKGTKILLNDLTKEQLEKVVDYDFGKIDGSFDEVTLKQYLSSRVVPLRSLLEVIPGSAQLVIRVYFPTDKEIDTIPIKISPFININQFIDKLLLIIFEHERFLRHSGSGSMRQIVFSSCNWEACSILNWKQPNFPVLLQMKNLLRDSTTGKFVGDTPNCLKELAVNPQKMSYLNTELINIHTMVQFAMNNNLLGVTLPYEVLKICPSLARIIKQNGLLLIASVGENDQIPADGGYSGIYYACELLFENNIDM
Briefly: Inhibition of Saccharomyces cerevisiae Pho81-MD-dependent Pho80-Pho85 activity after 10 mins.

Assay [7] deals with T3, Pho80/Pho85/Pho81 complex (Saccharomyces cerevisiae S288c, UniProt P17157+P17442+P20052). In words: Binding affinity to Saccharomyces cerevisiae Pho80-Pho85-Pho81-MD complex from 2uM to 80 uM after 30 mins by electrophoretic mobility shift assay in presence of 6 mM MgCl2. Format: protein-complex assay. To be noted: read-out: Kd(app).
Assay [8] addresses T1, Pho80/Pho85/Pho81 complex (Saccharomyces cerevisiae S288c). In words: Inhibition of Saccharomyces cerevisiae Pho80-Pho85-Pho81-MD catalyzed phosphorylation of Pho4 I22T distal-site mutant assessed as increase in substrate concentration. Format: protein-complex assay.
The target is the same in assay [9]. In words: Inhibition of Saccharomyces cerevisiae Pho80-Pho85-Pho81-MD catalyzed phosphorylation of Pho4 F29I distal-site mutant assessed as increase in substrate concentration. The assay is classed as protein-complex assay.
In assay [10] the target is T2, Phosphate system positive regulatory protein PHO81. In words: Inhibition of Saccharomyces cerevisiae Pho81-MD-dependent Pho80-Pho85 activity after 30 mins.
Assay [11] has the same target. In words: Inhibition of Saccharomyces cerevisiae Pho81-MD-MD dependent Pho80-Pho85 activity after 120 mins.
Assay [12] has as its target T4, Pho80/Pho85 (Saccharomyces cerevisiae S288c) (UniProt P17157+P20052). Briefly: Binding affinity of Pho81-MD S1-segment to Saccharomyces cerevisiae Pho80-Pho85. Format: protein-complex assay.
Assay [13] has as its target T1, Pho80/Pho85/Pho81 complex (Saccharomyces cerevisiae S288c). Briefly: Binding affinity to Saccharomyces cerevisiae Pho80-Pho85-Pho81-MD complex at 0.2 uM after 30 mins by electrophoretic mobility shift assay in presence of 6mM MnCl2. The assay is classed as protein-complex assay. The settings on record: tested as the 32P-labelled form.
Assay [14] has the same target. In words: Binding affinity to Saccharomyces cerevisiae Pho80-Pho85-Pho81-MD complex at 0.2 uM after 30 mins by electrophoretic mobility shift assay in presence of 6mM CaCl2. To be noted: tested as the 32P-labelled form. Format: protein-complex assay.
Assay [15] has the same target. In words: Inhibition of Saccharomyces cerevisiae Pho80-Pho85-Pho81-MD catalyzed phosphorylation of Pho4 D175V distal-site mutant. The assay is classed as protein-complex assay.
Assay [16] has the same target. Briefly: Inhibition of Saccharomyces cerevisiae Pho80-Pho85-Pho81-MD catalyzed phosphorylation of Pho4 S176N distal-site mutant assessed as increase in substrate concentration. Format: protein-complex assay.
The target of assay [17] is T2, Phosphate system positive regulatory protein PHO81. Briefly: Inhibition of Saccharomyces cerevisiae Pho81-MD-MD dependent Pho80-Pho85 activity after 60 mins.
Assay [18] has as its target T1, Pho80/Pho85/Pho81 complex (Saccharomyces cerevisiae S288c). In words: Binding affinity to Saccharomyces cerevisiae Pho80-Pho85-Pho81-MD complex at 0.2 uM after 30 mins by electrophoretic mobility shift assay in presence of 6mM MgCl2. The assay is classed as protein-complex assay. The settings on record: tested as the 32P-labelled form.
In assay [19] the target is T3, Pho80/Pho85/Pho81 complex. In words: Competitive inhibition of Saccharomyces cerevisiae Pho80-Pho85-Pho81-MD catalyzed phosphorylation of Pho4 assessed as increase in substrate concentration by line-weaverberk plot assay. The assay is classed as protein-complex assay.
For assay [20], the target named is T1, Pho80/Pho85/Pho81 complex (Saccharomyces cerevisiae S288c). In words: Binding affinity to Saccharomyces cerevisiae Pho80-Pho85-Pho81-MD complex at 0.2 uM after 30 mins at by electrophoretic mobility shift assay. To be noted: tested as the 32P-labelled form.
The target is the same in assay [21]. In words: Inhibition of Saccharomyces cerevisiae Pho80-Pho85-Pho81-MD catalyzed phosphorylation of wild type Pho4 distal-site assessed as increase in substrate concentration. The assay is classed as protein-complex assay.
Assay [22] concerns the target T3, Pho80/Pho85/Pho81 complex. Briefly: Inhibition of Saccharomyces cerevisiae Pho80-Pho85-Pho81-MD catalyzed phosphorylation of Pho4-site 6 peptide. The assay is classed as protein-complex assay.
In assay [23] the target is T4, Pho80/Pho85 (Saccharomyces cerevisiae S288c). In words: Binding affinity of […]-labeled Pho81-MD to Saccharomyces cerevisiae Pho80-Pho85 by fluorescence binding assay relative to untreated control. Format: protein-complex assay.
For assay [24], the target named is T1, Pho80/Pho85/Pho81 complex (Saccharomyces cerevisiae S288c). In words: Binding affinity to Saccharomyces cerevisiae Pho80-Pho85-Pho81-MD complex at 0.2 uM after 30 mins by electrophoretic mobility shift assay in presence of 6 mM ZnSO4. The assay is classed as protein-complex assay. The settings on record: tested as the 32P-labelled form.
Assay [25] has the same target. In words: Displacement of [32P]-labeled 6-inositol heptakisphosphate from Pho80-Pho85-Pho81-MD complex in Saccharomyces cerevisiae at 400 uM at 30 degC by electrophoretic mobility shift assay. The assay is classed as protein-complex assay. The settings on record: tested as the 32P-labelled form.
Assay [26] concerns the target T4, Pho80/Pho85 (Saccharomyces cerevisiae S288c). In words: Binding affinity of Pho81-MD S2-segment to Saccharomyces cerevisiae Pho80-Pho85. The assay is classed as protein-complex assay.
Assay [27] addresses T1, Pho80/Pho85/Pho81 complex (Saccharomyces cerevisiae S288c). Briefly: Displacement of [32P]-labeled 6-inositol heptakisphosphate from Pho80-Pho85-Pho81-MD complex in Saccharomyces cerevisiae at 400 uM at 4 degC by electrophoretic mobility shift assay. Format: protein-complex assay. To be noted: tested as the 32P-labelled form.
Assay [28] concerns the target T4, Pho80/Pho85 (Saccharomyces cerevisiae S288c). Briefly: Inhibition of Saccharomyces cerevisiae Pho80-Pho85 at 50 uM in presence of > 10 uM Pho81-MD. The assay is classed as protein-complex assay.
Assay [29] concerns the target T1, Pho80/Pho85/Pho81 complex (Saccharomyces cerevisiae S288c). Briefly: Binding affinity to Saccharomyces cerevisiae Pho80-Pho85-Pho81-MD complex at 400 uM after 30 mins at 30 degC by electrophoretic mobility shift assay. The assay is classed as protein-complex assay.
Assay [30] concerns the target T4, Pho80/Pho85 (Saccharomyces cerevisiae S288c). In words: Inhibition of Saccharomyces cerevisiae Pho80-Pho85 at 100 uM in presence of > 10 uM Pho81-MD. The assay is classed as protein-complex assay.
Assay [31] has as its target T1, Pho80/Pho85/Pho81 complex (Saccharomyces cerevisiae S288c). In words: Inhibition of Saccharomyces cerevisiae Pho80-Pho85-Pho81-MD catalyzed phosphorylation of Pho4 P174L distal-site mutant assessed as increase in substrate concentration. The assay is classed as protein-complex assay.

The source made the active and inactive calls. No cut-off for these calls is given here.

T3 sequence (P17157 whole entry, one chain of several): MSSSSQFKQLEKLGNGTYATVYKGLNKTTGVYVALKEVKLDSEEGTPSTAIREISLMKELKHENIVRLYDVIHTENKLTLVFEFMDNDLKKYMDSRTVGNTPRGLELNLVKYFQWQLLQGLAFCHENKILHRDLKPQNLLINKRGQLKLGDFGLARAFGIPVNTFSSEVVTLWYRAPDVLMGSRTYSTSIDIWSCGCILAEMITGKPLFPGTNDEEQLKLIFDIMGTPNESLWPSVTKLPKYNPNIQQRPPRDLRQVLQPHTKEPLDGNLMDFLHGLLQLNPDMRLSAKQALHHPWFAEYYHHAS
T3 sequence (P20052 whole entry, one chain of several): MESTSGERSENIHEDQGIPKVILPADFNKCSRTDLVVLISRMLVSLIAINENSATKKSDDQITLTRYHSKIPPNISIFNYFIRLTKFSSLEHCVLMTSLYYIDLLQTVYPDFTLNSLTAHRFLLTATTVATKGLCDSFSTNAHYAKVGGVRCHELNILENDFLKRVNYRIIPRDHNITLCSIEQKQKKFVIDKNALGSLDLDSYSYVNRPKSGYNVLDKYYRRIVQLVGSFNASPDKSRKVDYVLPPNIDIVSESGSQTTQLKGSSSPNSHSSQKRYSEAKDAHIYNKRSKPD

Regarding `O=P(O)(O)O[C@H]1[C@@H](OP(=O)(O)O)[C@@H](OP(=O)(O)O)[C@H](OP(=O)(O)OP(=O)(O)O)[C@@H](OP(=O)(O)O)[C@@H]1OP(=O)(O)O`, the result in [1], in assay [5], in [14], in [20], in assay [26] and in [27] was inactive. Further, the result in [28], in assay [29] and in assay [30] was inactive. Moreover, the result in assay [2], in [3], in [4], in assay [12], in assay [13] and in assay [18] was Active. Also, the outcome in assay [24] and in assay [25] was Active. The IC50 in assay [6] stood at 23 µM; in assay [10], 14 µM; in [11], 22 µM; in [17], 31 µM; in assay [22], 25 µM. Besides, the Kd in [7] is 20.3 µM. Further, the inhibition entry in assay [8], in [9], in [15], in assay [16], in assay [21] and in [31] was “Active” each time. In addition, the Ki in assay [19] turned out to be 19 µM. In assay [23], this molecule yielded a fold change (FC) of 5.

Regarding `O=P(O)(O)O[C@H]1[C@@H](OP(=O)(O)O)[C@H](OP(=O)(O)O)[C@@H](OP(=O)(O)OP(=O)(O)O)[C@H](OP(=O)(O)O)[C@H]1OP(=O)(O)O`, the outcome in assay [23] was inactive.

The values above are taken from ChEMBL document CHEMBL1240334, “Molecular basis of cyclin-CDK-CKI regulation by reversible binding of an inositol pyrophosphate” (Nat Chem Biol, 2008).
